Data on three compounds can be found in PMC3179181 (Journal of medicinal chemistry, 2010).

Entries after “also recorded” stand apart in the source; their conditions may differ.

For data set [1] the following is noted: rat.
The test system of data set [2] is Caspase 3 and 7. As to the kind of experiment: Caspase 3/7 activity. Format: cell-based. To be noted: 48 hours, 10 μM, versus vehicle; for Caspase 3 and 7 activity: serum free.
For data set [3], the target named is T1, PLD1 (Homo sapiens, UniProt Q13393).
T1 sequence (Q13393 1-1074): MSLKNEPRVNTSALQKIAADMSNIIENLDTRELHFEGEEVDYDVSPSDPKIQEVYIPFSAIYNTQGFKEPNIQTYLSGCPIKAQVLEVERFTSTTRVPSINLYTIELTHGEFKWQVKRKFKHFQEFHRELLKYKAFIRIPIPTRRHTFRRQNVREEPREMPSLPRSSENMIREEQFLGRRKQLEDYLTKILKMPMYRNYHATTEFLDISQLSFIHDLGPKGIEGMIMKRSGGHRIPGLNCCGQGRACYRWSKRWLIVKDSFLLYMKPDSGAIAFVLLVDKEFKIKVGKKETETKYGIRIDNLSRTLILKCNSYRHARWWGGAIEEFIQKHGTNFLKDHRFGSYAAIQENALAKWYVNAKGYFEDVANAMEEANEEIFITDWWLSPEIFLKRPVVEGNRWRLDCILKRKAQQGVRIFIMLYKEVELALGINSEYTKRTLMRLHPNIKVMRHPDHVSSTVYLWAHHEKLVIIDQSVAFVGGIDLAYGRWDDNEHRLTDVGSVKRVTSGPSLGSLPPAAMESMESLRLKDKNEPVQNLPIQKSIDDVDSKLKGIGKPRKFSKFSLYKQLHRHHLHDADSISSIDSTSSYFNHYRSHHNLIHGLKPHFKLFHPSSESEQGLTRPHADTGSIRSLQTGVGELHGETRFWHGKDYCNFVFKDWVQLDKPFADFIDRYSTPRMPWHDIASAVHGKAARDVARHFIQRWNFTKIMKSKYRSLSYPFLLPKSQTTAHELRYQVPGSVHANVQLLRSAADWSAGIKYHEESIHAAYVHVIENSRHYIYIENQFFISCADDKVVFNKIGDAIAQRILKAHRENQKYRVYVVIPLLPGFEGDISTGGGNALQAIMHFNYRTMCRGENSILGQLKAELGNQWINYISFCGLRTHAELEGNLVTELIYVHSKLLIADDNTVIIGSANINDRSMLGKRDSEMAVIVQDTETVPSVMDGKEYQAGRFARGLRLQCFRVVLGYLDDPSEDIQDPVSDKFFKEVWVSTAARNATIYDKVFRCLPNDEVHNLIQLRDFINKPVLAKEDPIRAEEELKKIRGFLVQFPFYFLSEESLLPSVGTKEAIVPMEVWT
In words: cell-based.

The target in data set [4] is T2, PLD2 (Homo sapiens, UniProt O14939).
Data set [5] addresses T2, PLD2. As to the kind of experiment: cell-based.

T2 sequence (O14939 whole entry): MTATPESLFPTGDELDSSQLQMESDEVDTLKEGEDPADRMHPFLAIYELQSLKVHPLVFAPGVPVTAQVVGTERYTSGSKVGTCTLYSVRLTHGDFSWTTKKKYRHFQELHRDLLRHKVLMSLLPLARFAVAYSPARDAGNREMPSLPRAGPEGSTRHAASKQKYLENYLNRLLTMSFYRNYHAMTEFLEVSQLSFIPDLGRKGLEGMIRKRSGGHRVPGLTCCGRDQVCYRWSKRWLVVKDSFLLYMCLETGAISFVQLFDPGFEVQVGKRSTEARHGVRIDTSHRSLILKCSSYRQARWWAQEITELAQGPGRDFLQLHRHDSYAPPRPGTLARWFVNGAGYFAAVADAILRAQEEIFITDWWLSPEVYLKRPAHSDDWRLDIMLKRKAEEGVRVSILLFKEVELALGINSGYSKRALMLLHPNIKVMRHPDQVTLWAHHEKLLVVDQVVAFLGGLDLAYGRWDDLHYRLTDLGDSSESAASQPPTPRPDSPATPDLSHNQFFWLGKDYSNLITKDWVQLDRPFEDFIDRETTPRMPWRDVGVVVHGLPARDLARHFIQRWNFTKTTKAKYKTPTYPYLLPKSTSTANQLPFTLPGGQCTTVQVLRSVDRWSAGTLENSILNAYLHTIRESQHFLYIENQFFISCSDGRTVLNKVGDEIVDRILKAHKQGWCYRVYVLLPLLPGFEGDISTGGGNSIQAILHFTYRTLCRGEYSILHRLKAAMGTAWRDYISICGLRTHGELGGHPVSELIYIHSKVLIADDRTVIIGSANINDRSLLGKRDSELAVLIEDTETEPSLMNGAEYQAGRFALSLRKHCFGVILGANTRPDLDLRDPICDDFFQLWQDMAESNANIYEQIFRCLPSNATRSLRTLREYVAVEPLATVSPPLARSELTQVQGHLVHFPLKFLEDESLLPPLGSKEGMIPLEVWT

Turning to `O=C(NCCN1CCC2(CC1)C(=O)NCN2c1cccc(F)c1)c1ccc2ccccc2c1` [22a, N-(2-(1-(3-fluorophenyl)-4-oxo-1,3,8-triazaspiro[4.5]decan-8-yl)ethyl)-2-naphthamide], the “plasma protein binding (% bound)” value in data set [1] amounted to 97.9 % bound. Besides, in data set [2], the “Caspase 3 and 7 activity” value is recorded as “increased Caspase 3 & 7 activity”.

The IC50 is the concentration at which inhibition is half-maximal. Turning to `C[C@@H](CN1CCC2(CC1)C(=O)NCN2c1ccc(F)c(F)c1)NC(=O)c1ccc2ccccc2c1.O=C(O)C(F)(F)F` [24a, (S)-N-(1-(1-(3,4-difluorophenyl)-4-oxo-1,3,8-triazaspiro[4.5]decan-8-yl)propan-2-yl)-2-naphthamide 2,2,2-trifluoroacetate], the figures for the IC50 in data set [3] and in data set [5] were 2.8 µM and 0.12 µM, respectively. In addition, the “Fold PLD2 Selective” value in data set [4] amounted to 23 fold.

For the compound `C[C@@H](CN1CCC(n2c(=O)[nH]c3cc(Br)ccc32)CC1)NC(=O)[C@H]1C[C@@H]1c1ccccc1` [compound 14], the “increase in Caspase 3 and 7 activity” value in data set [2] (10% FBS) is on record as “marginal increase; also recorded: fairly resistant to PLD inhibitor treatment”. Besides, the “Caspase 3 and 7 activity” value in data set [2] was “increased Caspase 3 & 7 activity”.
